Patent US20230079819A1, “COMPOUNDS AND USES THEREOF” (Foghorn Therapeutics Inc., priority 2019, published 2023)
Like-named read-outs stand apart in the source and are kept apart here.

Assays:
BRM = target: T1, BRM (Homo sapiens, UniProt P51531); test: ATPase catalytic activity of BRM, ADP-Glo in vitro biochemical assay; details: ATPase catalytic activity, 30 nM BRM, 400 μM ATP
T1 construct: made in house; host or cells: High Five insect cells

BRG-1 = target: T2, BRG-1 (Homo sapiens, UniProt P51532); test: ATPase catalytic activity of BRG-1, ADP-Glo in vitro biochemical assay; details: ATPase catalytic activity, 30 nM BRG-1, 400 μM ATP
T2 construct: made in house; host or cells: High Five insect cells
T2 sequence (P51532 whole entry): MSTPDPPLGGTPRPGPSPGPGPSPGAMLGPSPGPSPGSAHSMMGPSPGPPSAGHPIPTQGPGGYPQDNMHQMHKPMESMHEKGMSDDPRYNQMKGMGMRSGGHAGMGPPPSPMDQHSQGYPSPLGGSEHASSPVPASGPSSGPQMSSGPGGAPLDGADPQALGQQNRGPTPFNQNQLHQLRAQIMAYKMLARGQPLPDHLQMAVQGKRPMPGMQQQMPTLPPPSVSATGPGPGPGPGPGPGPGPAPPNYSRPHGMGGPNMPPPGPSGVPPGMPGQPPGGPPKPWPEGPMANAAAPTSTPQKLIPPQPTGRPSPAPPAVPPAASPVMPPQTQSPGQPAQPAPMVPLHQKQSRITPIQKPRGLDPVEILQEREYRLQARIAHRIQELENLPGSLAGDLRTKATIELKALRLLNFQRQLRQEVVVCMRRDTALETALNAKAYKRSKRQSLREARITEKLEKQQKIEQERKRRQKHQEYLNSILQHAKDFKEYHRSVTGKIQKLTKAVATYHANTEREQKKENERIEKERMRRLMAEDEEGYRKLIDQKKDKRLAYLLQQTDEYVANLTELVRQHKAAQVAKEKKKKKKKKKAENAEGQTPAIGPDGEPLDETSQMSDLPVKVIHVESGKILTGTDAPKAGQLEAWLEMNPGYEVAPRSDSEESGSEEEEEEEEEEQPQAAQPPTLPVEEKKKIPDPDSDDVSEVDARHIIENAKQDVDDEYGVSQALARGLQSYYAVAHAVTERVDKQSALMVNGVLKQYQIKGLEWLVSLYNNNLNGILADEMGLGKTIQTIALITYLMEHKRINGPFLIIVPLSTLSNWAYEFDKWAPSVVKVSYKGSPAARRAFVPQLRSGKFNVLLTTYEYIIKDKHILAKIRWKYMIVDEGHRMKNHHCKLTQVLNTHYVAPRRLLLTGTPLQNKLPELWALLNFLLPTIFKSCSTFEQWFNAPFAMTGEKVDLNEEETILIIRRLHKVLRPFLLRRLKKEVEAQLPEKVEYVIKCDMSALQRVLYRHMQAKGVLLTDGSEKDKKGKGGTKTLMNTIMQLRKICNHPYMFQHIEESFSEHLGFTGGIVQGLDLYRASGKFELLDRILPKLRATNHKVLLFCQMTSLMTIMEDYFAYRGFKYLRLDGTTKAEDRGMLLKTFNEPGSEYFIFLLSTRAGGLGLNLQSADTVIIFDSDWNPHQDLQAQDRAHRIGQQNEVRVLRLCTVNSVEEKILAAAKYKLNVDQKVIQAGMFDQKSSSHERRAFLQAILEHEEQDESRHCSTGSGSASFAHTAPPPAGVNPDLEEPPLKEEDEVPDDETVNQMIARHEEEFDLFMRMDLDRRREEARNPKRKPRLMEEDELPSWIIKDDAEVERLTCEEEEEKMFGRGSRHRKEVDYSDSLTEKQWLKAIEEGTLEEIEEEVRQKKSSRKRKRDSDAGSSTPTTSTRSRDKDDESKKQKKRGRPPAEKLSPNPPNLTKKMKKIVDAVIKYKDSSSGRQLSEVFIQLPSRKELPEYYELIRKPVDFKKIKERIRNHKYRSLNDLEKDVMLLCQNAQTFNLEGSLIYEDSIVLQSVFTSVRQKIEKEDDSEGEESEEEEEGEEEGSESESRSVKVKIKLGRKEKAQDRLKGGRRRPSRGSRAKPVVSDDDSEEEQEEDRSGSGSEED

T1 sequence (P51531 whole entry): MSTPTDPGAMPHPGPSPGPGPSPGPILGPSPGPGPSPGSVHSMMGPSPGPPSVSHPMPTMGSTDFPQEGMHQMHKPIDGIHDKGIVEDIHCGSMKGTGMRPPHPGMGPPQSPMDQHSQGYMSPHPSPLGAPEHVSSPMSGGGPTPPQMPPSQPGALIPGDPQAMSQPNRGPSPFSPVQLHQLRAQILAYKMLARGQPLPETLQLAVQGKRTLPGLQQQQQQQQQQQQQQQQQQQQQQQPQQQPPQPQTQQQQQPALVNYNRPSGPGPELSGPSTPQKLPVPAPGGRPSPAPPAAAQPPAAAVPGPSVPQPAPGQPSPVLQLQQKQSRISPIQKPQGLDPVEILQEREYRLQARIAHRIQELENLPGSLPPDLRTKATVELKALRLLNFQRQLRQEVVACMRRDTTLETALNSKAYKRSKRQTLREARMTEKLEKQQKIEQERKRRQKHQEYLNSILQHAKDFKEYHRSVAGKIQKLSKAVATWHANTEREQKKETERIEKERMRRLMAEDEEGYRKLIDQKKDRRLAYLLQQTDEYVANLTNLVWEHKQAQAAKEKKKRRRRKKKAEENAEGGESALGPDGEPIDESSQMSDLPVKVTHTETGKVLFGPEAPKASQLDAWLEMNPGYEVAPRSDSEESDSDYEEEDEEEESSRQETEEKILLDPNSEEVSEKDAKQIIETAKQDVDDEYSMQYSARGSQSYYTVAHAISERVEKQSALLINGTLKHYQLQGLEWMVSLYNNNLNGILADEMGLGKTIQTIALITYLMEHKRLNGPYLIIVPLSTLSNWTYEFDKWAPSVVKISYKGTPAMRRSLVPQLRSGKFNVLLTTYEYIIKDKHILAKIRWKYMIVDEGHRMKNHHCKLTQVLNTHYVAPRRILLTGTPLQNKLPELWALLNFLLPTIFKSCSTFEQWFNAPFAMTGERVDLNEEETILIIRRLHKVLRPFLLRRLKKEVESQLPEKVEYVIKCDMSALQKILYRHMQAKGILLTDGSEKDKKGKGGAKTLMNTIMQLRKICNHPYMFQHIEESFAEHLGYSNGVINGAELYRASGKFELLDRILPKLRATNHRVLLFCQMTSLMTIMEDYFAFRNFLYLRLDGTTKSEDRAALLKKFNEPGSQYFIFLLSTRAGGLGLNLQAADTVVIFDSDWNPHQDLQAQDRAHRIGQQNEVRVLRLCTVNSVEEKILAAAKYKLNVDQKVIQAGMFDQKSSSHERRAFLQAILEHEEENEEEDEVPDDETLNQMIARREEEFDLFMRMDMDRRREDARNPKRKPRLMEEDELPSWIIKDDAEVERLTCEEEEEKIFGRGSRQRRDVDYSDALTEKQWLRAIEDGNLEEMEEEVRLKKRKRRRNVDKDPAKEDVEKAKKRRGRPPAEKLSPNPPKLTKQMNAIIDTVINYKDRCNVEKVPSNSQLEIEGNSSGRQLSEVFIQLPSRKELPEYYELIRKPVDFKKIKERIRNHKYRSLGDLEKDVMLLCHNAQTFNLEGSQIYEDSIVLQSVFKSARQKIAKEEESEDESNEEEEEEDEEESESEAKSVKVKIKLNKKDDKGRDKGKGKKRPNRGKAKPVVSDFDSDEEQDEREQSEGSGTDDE

Structure (SMILES) | IC50 (BRM; read-out: BRM IP50 (μM)*) [µM] | IC50 (BRG-1; read-out: BRG1 IP50 (μM)*) [µM] | IC50 (BRM; read-out: BRM IP50) [µM] | IC50 (BRG-1; read-out: BRG1 IP50) [µM]
CS(=O)(=O)n1ccc(C(=O)NCC(=O)Nc2nc(-c3cccc(OC[C@H]4CCOC4)c3)cs2)c1 [Compound 303, 1-methylsulfonyl-N-[2-oxo-2-[[4-[3-[[(3S)-tetrahydrofuran-3-yl]methoxy]phenyl]thiazol-2-yl]amino]ethyl]pyrrole-3-carboxamide] | < 0.01 | > 0.01 |  | 
CSCC[C@H](NC(=O)c1ccn(S(C)(=O)=O)c1)C(=O)Nc1nc(-c2cccc(-c3ccnc(C)c3)c2)cs1 [Compound 59, (S)—N-(1-((4-(3-(2-methylpyridin-4-yl)phenyl)thiazol-2-yl)amino)-4-(methylthio)-1-oxobutan-2-yl)-1-(methylsulfonyl)-1H-pyrrole-3-carboxamide] | < 0.01 | < 0.01 |  | 
COC[C@H](NC(=O)c1ccn(S(C)(=O)=O)c1)C(=O)Nc1nc(-c2ccc(F)c(OC3CC3)c2F)cs1 [Compound 613] |  |  | > 0.01 | > 0.1
C[C@@H]1CN(c2cccc(-c3csc(NC(=O)CNC(=O)c4ccn([C@]5(C)CCOC5)c4)n3)n2)C[C@H](C)O1 (single isomer, unassigned) [Compound 490] |  |  | > 0.01 | > 0.1
CS(=O)(=O)n1ccc(C(=O)NCC(=O)Nc2nc(-c3cccc(C(=O)Nc4ccncc4)c3)cs2)c1 [Compound 117, 1-(methylsulfonyl)-N-(2-oxo-2-((4-(3-(pyridin-4-ylcarbamoyl)phenyl)thiazol-2-yl)amino)ethyl)-1H-pyrrole-3-carboxamide] | > 0.01 | > 0.01 |  | 
COC[C@H](NC(=O)c1ccn(S(C)(=O)=O)c1)C(=O)Nc1nc(-c2cncc(N3C[C@@H](C)O[C@@H](C)C3)n2)cs1 [Compound 707] |  |  | > 0.01 | > 0.01
CC1(n2ccc(C(=O)NCC(=O)Nc3nc(-c4cccc(N5CCC5)c4)cs3)c2)COC1 [Compound 185] | > 0.01 | > 0.01 |  | 
Cn1ncc2ccc(-c3csc(NC(=O)CNC(=O)c4ccn(S(C)(=O)=O)c4)n3)cc21 [Compound 132, N-(2-((4-(1-methyl-1H-indazol-6-yl)thiazol-2-yl)amino)-2-oxoethyl)-1-(methylsulfonyl)-1H-pyrrole-3-carboxamide] | > 0.01 | > 0.01 |  | 
COCC[C@H](NC(=O)c1ccn(C(C)(C)C)c1)C(=O)Nc1nc(-c2ccc3ccn(C)c(=O)c3c2)cs1 [Compound 567] |  |  | > 0.01 | > 0.01
CN(C)CC[C@@H](NC(=O)c1ccn(S(C)(=O)=O)c1)C(=O)Nc1nc(-c2cccc(-c3ccncc3)c2)cs1 [Compound 79, (R)—N-(4-(dimethylamino)-1-oxo-1-((4-(3-(pyridin-4-yl)phenyl)thiazol-2-yl)amino)butan-2-yl)-1-(methylsulfonyl)-1H-pyrrole-3-carboxamide] | > 0.1 | > 0.1 |  | 
CC[C@H]1CN(c2cccc(-c3csc(NC(=O)CNC(=O)c4ccn(S(C)(=O)=O)c4)n3)c2)CCO1 [Compound 236] | > 0.01 | > 0.01 |  | 
COC(C)(C)Cn1ccc(-c2cccc(-c3csc(NC(=O)CNC(=O)c4ccn(C(C)(C)C)c4)n3)c2)n1 [Compound 25, 1-(tert-butyl)-N-(2-((4-(3-(1-(2-methoxy-2-methylpropyl)-1H-pyrazol-3-yl)phenyl)thiazol-2-yl)amino)-2-oxoethyl)-1H-pyrrole-3-carboxamide] | > 0.01 | > 0.1 |  | 
C[C@]1(n2ccc(C(=O)NCC(=O)Nc3nc(-c4cccc(N5CCC5)c4)cs3)c2)CC1(F)F [Compound 652] |  |  | > 0.01 | > 0.01
COC[C@H](NC(=O)c1ccn(S(C)(=O)=O)c1)C(=O)Nc1nc(-c2cccc(N3CCO[C@@H](C)C3)c2)cs1 [Compound 373] | < 0.01 | > 0.01 |  | 
CS(=O)(=O)n1ccc(C(=O)NCC(=O)Nc2nc(-c3cc(F)c4c(c3)CCO4)cs2)c1 [Compound 544] |  |  | < 0.01 | < 0.01
CC(C)(C)n1ccc(C(=O)NCC(=O)Nc2nc(-c3cccc(N4CCOCC4)c3)cs2)c1 [Compound 100, 1-tert-butyl-N-[2-[[4-(3-morpholinophenyl)thiazol-2-yl]amino]-2-oxo-ethyl]pyrrole-3-carboxamide] | > 0.01 | > 0.01 |  | 
COc1ccncc1-c1cccc(-c2csc(NC(=O)CNC(=O)c3ccn(C4(C)COC4)c3)n2)n1 [Compound 262, N-[2-[[4-[6-(4-methoxy-3-pyridyl)-2-pyridyl]thiazol-2-yl]amino]-2-oxo-ethyl]-1-(3-methyloxetan-3-yl)pyrrole-3-carboxamide] | > 0.01 | > 0.01 |  | 
CS(=O)(=O)n1ccc(C(=O)NCC(=O)Nc2nc(-c3cccc(N4CC5(COC5)C4)c3)cs2)c1 [Compound 101, N-(2-((4-(3-(2-oxa-6-azaspiro[3.3]heptan-6-yl)phenyl)thiazol-2-yl)amino)-2-oxoethyl)-1-(methylsulfonyl)-1H-pyrrole-3-carboxamide] | < 0.01 | < 0.01 |  | 
COC[C@H](NC(=O)c1ccn(C(C)(C)C)c1)C(=O)Nc1nc(-c2ccc3ccn(C(F)F)c(=O)c3c2)cs1 [Compound 583] |  |  | > 0.01 | > 0.01
C[C@@H]1CN(c2cccc(-c3nc(NC(=O)CNC(=O)c4ccn(S(C)(=O)=O)c4)sc3F)c2)C[C@H](C)O1 [Compound 181, N-[2-[[4-[3-[(cis)-2,6-dimethylmorpholin-4-yl]phenyl]-5-fluoro-thiazol-2-yl]amino]-2-oxo-ethyl]-1-methylsulfonyl-pyrrole-3-carboxamide] | > 0.01 | > 0.01 |  | 
COC[C@H](NC(=O)c1ccn(S(C)(=O)=O)c1)C(=O)Nc1nc(-c2cc(F)c3c(c2)C(F)(F)CC3)cs1 [Compound 733] |  |  | < 0.01 | < 0.01
